Measured values taken from patent US4243681A, “Alkylthiophenoxypropanolamines and pharmaceutical compositions and uses thereof” (priority 1979, dated 1981).
Counter-ions that a name gives are not always drawn.

Experiments:
[1] = tested on: human platelet-rich plasma; experiment: Inhibition of platelet aggregation in vitro (ADP or collagen induced; antithrombogenic activity); format: cell-based; conditions: for ED50 ADP (inhibition of platelet aggregation): aggregation induced by 1 mcg. ADP; for ED50 Coll (inhibition of platelet aggregation): minimal amount of collagen producing maximal aggregation
Experimental: Test Method. A method similar to that described in Born, Nature 194, 927 (1962) and O'Brien, J. Clinical Pathology 15, 446 (1962). This test comprises a nephelometric method in which the change in turbidity of a specimen of human platelet-rich plasma is measured on causation of platelet aggregation by addition of adenosine diphosphate (ADP) or collagen as the thrombogenic inducing agent. An increase in transmittance light occurs when the thrombogenic agent is added to the specimen of platelet-rich plasm due to clumping of platelets. Efficacy of the test compound is determined by ability to prevent the clumping and concommitant increase in transmittance. Various concentrations of the test agent are tested and that concentration causing a 50% reduction in the thrombogenic response is determined from a concentration-response curve.

[2] = biological target: T1, adrenergic beta-receptor (Cavia porcellus, UniProt Q8K4Z4); experiment: Beta-adrenergic blocking activity in the isolated guinea pig trachea (isoproterenol); format: cell-based; conditions: for Beta-Adrenergic Blocking Potency: potency relative to propanol (equals one), isoproterenol 0.1 mcg./ml.
T1 construct: Tracheas excised from adult guinea pigs; from tissue; host or cells: guinea pig trachea (spirally cut segments)
T1 sequence (Q8K4Z4 whole entry): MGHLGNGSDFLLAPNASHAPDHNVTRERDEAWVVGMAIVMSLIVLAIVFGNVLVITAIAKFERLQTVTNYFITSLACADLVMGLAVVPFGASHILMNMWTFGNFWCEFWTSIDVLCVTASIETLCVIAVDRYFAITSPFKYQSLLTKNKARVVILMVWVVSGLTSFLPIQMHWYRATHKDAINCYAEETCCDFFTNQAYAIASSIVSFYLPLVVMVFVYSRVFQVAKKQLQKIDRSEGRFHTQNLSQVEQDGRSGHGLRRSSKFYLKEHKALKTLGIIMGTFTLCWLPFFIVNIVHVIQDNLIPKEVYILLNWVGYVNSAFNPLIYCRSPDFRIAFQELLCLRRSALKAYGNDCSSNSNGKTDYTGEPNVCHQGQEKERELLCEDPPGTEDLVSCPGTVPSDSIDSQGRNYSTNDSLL
Experimental: Test Method. […] The lower end of a tracheal segment is fixed to a stationary glass rod and the upper end is threaded to an isometric tension transducer. Changes in the spontaneous tonus of the tracheal smooth muscle are monitored via the transducer and recorded continuously on an electronic recorder. Adrenergic beta-receptor blocking activity is determined by the ability of a test agent to inhibit the response of the isolated tissue to the adrenergic beta-stimulant "isoproterenol" at a concentration of 0.1 mcg./ml. bath fluid. The tissues are exposed to the test agent solution for a 15-min. interval prior to the addition of isoproterenol to the bath fluid. Beta-receptor blocking potency of a test drug is ascertained from concentration-response relationships wherein the response is expressed as a percent inhibition of isoproterenol-induced tissue response. […] Each drug solution is added to the tissue bathing medium at a constant volume of 0.2 ml./ml. of bath fluid and only one test drug concentration is employed for an individual tissue segment. Potency of the test agent relative to that of the beta-adrenergic blocking agent "propanolol" as a reference standard is assessed by comparing the IC50 values.

[3] = tested on: rabbit thoracic aorta; experiment: Isolated rabbit thoracic aorta, antispasmodic activity vs. potassium chloride; format: cell-based, rabbit (New Zealand White); conditions: for antispasmodic potency relative to prior art compounds A and B / antispasmodic activity (in words): potassium chloride-induced spasms; for Antispasmodic Potency: potency relative to papaverine (equals one), from pA2 vs. potassium chloride
Experimental: (§1) Test Method. Antispasmodic activity was assessed in vitro by determining the effect of the test substance on induced contraction of arterial smooth muscle as follows. Adult, male, New Zealand White rabbits (body weight 2.5-4 kg.) were used. Each rabbit was killed by i.v. air injection. The thorax was opened and the descending thoracic aorta removed and placed in Kreb's-bicarbonate solution. Extraneous tissue was removed and the aorta was cut spirally along its entire length. Four spiral segments, each approximately 2 cm. in length (unstretched), were obtained from each thoracic aorta. […] The bath medium surrounding the aortic spiral (Kreb's-bicarbonate solution) was maintained at 37.5°C. and constantly aerated with 95% O2 :5% CO2. Activity of the aortic smooth muscle was recorded on an electronic polygraph via its connection to the tension transducer. After an equilibration period of 60 min., a cumulative dose-response curve was obtained to an agonist (e.g. potassium chloride or norepinephrine) and the tissue then washed. Seventy-five min. later, a second cumulative dose-response curve to the agonist was obtained and the tissue washed again. Sixty min. later, a test drug solution was added to the tissue bath fluid and, after 15 min., drug exposure and, without washing, a third and final agonist-response curve was obtained. All additions to the bath fluid were 0.1 ml. volumes of aqueous solutions.

[4] = tested on: perfused dog hind limb; experiment: Peripheral vasodilator activity, perfused dog hind limb (anesthetized dog); format: in vivo; conditions: for pressure reduction (findings, range over compounds): infusion dose 1.0 mg./min.
Experimental: Test Method. Mongrol dogs of either sex weighing between 11 and 16 kg., each, were anesthetized with pentobarbital (30 mg./kg.) administered intravenously. The left brachial vein was cannulated and pentobarbital infused continuously throughout the experiment at a rate of 5 mg./kg./hr. A tracheotomy was performed and dogs ventilated mechanically with room air at a rate of 18 strokes/min. and a volume equivalent to 20 ml./kg. The vagi were sectioned bilaterally in the mid-cervical region of the neck. The right brachial vein and artery were cannulated to inject drugs and to monitor blood pressure via a Statham pressure transducer, respectively. All measurements were recorded on a Beckman-Offner dynograph. The abdominal aorta was exposed through midline incision and a loose ligature placed around the aorta distal to the left renal artery. The right (donor) and left (recipient) femoral arteries were exposed for cannulation and subsequent hind-limb perfursion. Following intravenous administration of heparin (5 mg/kg.) and gallamine triethiodide (2 mg./kg.), the right femoral artery was cannulated and the tip of the catheter advanced into the abdominal aorta to the level of the renal arteries. The left femoral artery was cannulated and the hind-limb perfused using a Harvard Perfusion pump. The ligature previously placed around the aorta was subsequently tied to minimize collateral circulation. […] Perfusion pressure, measured at a point distal to the perfusion pump was set equal to 150 mm Hg. by adjusting pump speed. Blood flow to the limb was determined volumetrically at the conclusion of the experiment. The test agent was administered by infusion at a rate of from 0.1-1.0 mg./min. for a six-minute period and maximum reduction in pressure determined. One to three animals were employed per test agent. […] This protocol precludes effects resulting from animal variation thus permitting a direct side-by-side comparison of vasodilating activity.

[5] = tested on: alpha-adrenergic; experiment: Isolated rabbit thoracic aorta, antispasmodic (anti-alpha-adrenergic) activity vs. norepinephrine; format: cell-based, rabbit (New Zealand White); conditions: norepinephrine as agonist
Experimental: as §1, with “solutions. […] Selective activity against norepinephrine-induced spasms is indicative of alpha-adrenergic blocking (i.e. antispasmodic) activity. […] Phentolamine is an alpha-adrenergic blocking agent and a standard reference in the art. […] This experiment illustrates that the instant compounds are non-anti-alpha-adrenergic antispasmodic agents in that they have a substantial direct smooth muscle relaxant effect (as shown in Example 34) relatively uncomplicated by any significant selective alpha-adrenergic blocking effect.” for “solutions.”

[6] = infusion rate 0.3 mg./min., side-by-side comparison in same animals
[7] = infusion rate 1.0 mg./min., side-by-side comparison in same animals

Row | SMILES | Beta-Adrenergic Blocking Potency [2] | ED50 ADP (inhibition of platelet aggregation) [1] | ED50 Coll (inhibition of platelet aggregation) [1] | antispasmodic potency relative to prior art compounds A and B [3] | Antispasmodic Potency [3] | Pressure Decrease ([4]; infusion rate 0.3 mg./min.) | Pressure Decrease ([4]; infusion rate 1.0 mg./min.) | anti-alpha-adrenergic activity (in words) [5] | beta-adrenergic blocking activity (in words) [2] | antispasmodic activity (in words) [3] | pressure reduction (findings, range over compounds) [4] | Pressure Decrease [4, 6] | Pressure Decrease [4, 7] | anti-alpha-adrenergic activity relative to phentolamine [5]
1 | CCCCCCCCCCCCNCC(O)COc1ccc(SC(C)C)cc1.Cl (stereo not drawn) [Example 4, 1-[4-[(1-Methylethyl)thio]phenoxy]-3-(dodecylamino)-2-Propanol Hydrochloride] | < 0.001 | – | – | twice as potent | 0.08 | – | – | – | – | – | – | – | – | –
2 | CCCCCCCCNCC(O)COc1ccc(SC)cc1 (stereo not drawn) [Example 1, 1-[4-(Methylthio)phenoxy]-3-(octylamino)-2-propanol] | < 0.001 | 69 Microgram/0.5 ml. plateletrich human plasma | 42 Microgram/0.5 ml. plateletrich human plasma | – | – | -22 Millimeters of mercury | -59 Millimeters of mercury | – | – | – | – | – | – | –
3 | CSc1ccccc1OCC(O)CNC(C)C (stereo not drawn) [Test agent A, 1-(isopropylamino)-3-[2-(methylthio)phenoxy]-2-propanol, reference compound] | 1.0 | 137 Microgram/0.5 ml. plateletrich human plasma | 33 Microgram/0.5 ml. plateletrich human plasma | – | 0.04 | – | – | – | substantial activity | relatively weak activity | 27-29 mm Hg | -20 Millimeters of mercury | -27 Millimeters of mercury | 1-2%
4 | CCCCCCCCNCC(O)COc1cccc(SC(C)C)c1.Cl (stereo not drawn) [Example 3, 1-[3-[(1-Methylethyl)thio]phenoxy]-3-(octylamino)-2-propanol Hydrochloride] | < 0.001 | 53 Microgram/0.5 ml. plateletrich human plasma | 24 Microgram/0.5 ml. plateletrich human plasma | – | 0.7 | -20 Millimeters of mercury | -87 Millimeters of mercury | – | – | – | – | – | – | –
5 | COc1ccc(Cc2nccc3cc(OC)c(OC)cc23)cc1OC [Papaverine, reference compound] | – | – | – | – | – | -31 Millimeters of mercury | – | – | – | – | – | – | – | –

Continued, in another order:

Row | Beta-Adrenergic Blocking Potency [2] | SMILES | ED50 ADP (inhibition of platelet aggregation) [1] | ED50 Coll (inhibition of platelet aggregation) [1] | antispasmodic potency relative to prior art compounds A and B [3] | Antispasmodic Potency [3] | Pressure Decrease ([4]; infusion rate 0.3 mg./min.) | Pressure Decrease ([4]; infusion rate 1.0 mg./min.) | anti-alpha-adrenergic activity (in words) [5] | beta-adrenergic blocking activity (in words) [2] | antispasmodic activity (in words) [3] | pressure reduction (findings, range over compounds) [4] | Pressure Decrease [4, 6] | Pressure Decrease [4, 7] | anti-alpha-adrenergic activity relative to phentolamine [5]
6 | < 0.002 | CC(C)Sc1ccc(OCC(O)CNCCCCC2CCCCC2)cc1 (stereo not drawn) [Example 6, 1-[(4-cyclohexylbutyl)amino]-3-[4-[(1-methylethyl)thio]phenoxy]-2-propanolhydrochloride] | 53 Microgram/0.5 ml. plateletrich human plasma | 29 Microgram/0.5 ml. plateletrich human plasma | about 1/2 | 0.02 | -47 Millimeters of mercury | -74 Millimeters of mercury | – | – | – | – | – | – | –
7 | 0.2 | CSc1ccc(OCC(O)CNC(C)C)cc1 (stereo not drawn) [Test agent B, 1-(isopropylamino)-3-[4-(methylthio)phenoxy]-2-propanol, reference compound] | 107 Microgram/0.5 ml. plateletrich human plasma | 28 Microgram/0.5 ml. plateletrich human plasma | – | 0.04 | – | – | essentially inactive | substantial activity | relatively weak activity | 27-29 mm Hg | -3 Millimeters of mercury | -29 Millimeters of mercury | –
8 | < 0.0006 | CC(C)Sc1ccc(OCC(O)CNCCC2CCCCC2)cc1 (stereo not drawn) [Example 5, 1-[(2-cyclohexylethyl)amino]-3-[4-[(1-methylethyl)thio]phenoxy]-2-propanolhydrochloride] | 56 Microgram/0.5 ml. plateletrich human plasma | 47 Microgram/0.5 ml. plateletrich human plasma | – | 2.4 | -63 Millimeters of mercury | -87 Millimeters of mercury | – | – | – | – | – | – | –
9 | < 0.0006 | CCCCCCCCNCC(O)COc1ccc(SC)cc1C (stereo not drawn) [Example 7, 1-[2-methyl-4-(methylthio)phenoxy]-3-(octylamino)-2-propanol] | 82 Microgram/0.5 ml. plateletrich human plasma | 39 Microgram/0.5 ml. plateletrich human plasma | – | 0.8 | -56 Millimeters of mercury | -80 Millimeters of mercury | – | – | – | – | – | – | –
